Patent US9315475B2 (MERCK SHARP & DOHME CORP., priority 2011, dated 2016)

Experiments:
wildtype HIV-1 protease = molecular target: T1, wildtype HIV-1 protease (Human immunodeficiency virus type 1 group M subtype B, UniProt P04585); experiment: Assay for inhibition of microbial expressed HIV protease (Pepcleav); format: biochemical; settings: wild type HIV-1 protease expressed in E. coli, peptide substrate, pH 5.5; mean of at least two independent experiments; read-out: Pepcleav
T1 construct: the wildtype HIV-1 protease (which was expressed in Escherichia coli); made in house; host or cells: Escherichia coli
Method in brief: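 E. coli-expressed wild-type HIV-1 protease (20 pM) preincubated 30 min at room temperature with inhibitor in pH 5.5 sodium acetate/NaCl/BSA buffer, then 400 μM Val-Ser-Gln-Asn-(βnaphthyl)Ala-Pro-Ile-Val added for 1 h at 30 °C. Quenched with formic acid; product quantified by LC-MS/MS peak area, indinavir internal standard.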

HIV-1 (H9IIIB strain) = experiment: Antiviral acute infection assay in cell culture (Spread); format: cell-based; settings: Human immunodeficiency virus 1, T-lymphoid, HIV-1 H9IIIB infection of MT-4 human T-lymphoid cells in 10% FBS; mean of at least two independent experiments
From the text: Antiviral Assays in Cell Culture (“Spread”)
Acute Infection Assay (“Spread”) data were generated using HIV-1 (H9IIIB strain) infection of MT-4 human T-lymphoid cells in 10% FBS, and according to the methods disclosed by J. P. Vacca et al, “L-735,524: An orally bioavailable human immunodeficiency virus type 1 protease inhibitor,” Proc. Natl. Acad. Sci. USA, Vol. 91, pp. 4096-4100 (April 1994).

SMILES: O=C(C[C@H](c1ccc(F)cc1)c1cncc(F)c1)Nc1cccc(F)c1CC[C@@H]1CN[C@H](COC(=O)NCC(F)(F)F)CO1 [Example 161, {(3S,6R)-6-[2-(2-fluoro-6-{[(3R)-3-(4-fluorophenyl)-3-(5-fluoropyridin-3-yl)propanoyl]amino}phenyl)ethyl]morpholin-3-yl}methyl (2,2,2-trifluoroethyl)carbamate]
- IC50 (wildtype HIV-1 protease): 12 nM
- EC50 (HIV-1 (H9IIIB strain)): 70 nM

SMILES: N[C@H](C(=O)Nc1cccc(F)c1CC[C@@H]1CN[C@H](COC(=O)NCC(F)(F)F)CO1)[C@H](c1ccccc1)c1ccc(OC(F)(F)F)cc1 [Example 236, (βR)-N-(3-fluoro-2-{2-[(2R,5S)-5-({[(2,2,2-trifluoroethyl)carbamoyl]oxy}methyl)morpholin-2-yl]ethyl}phenyl)-β-phenyl-O-(trifluoromethyl)-L-tyrosinamide]
- IC50 (wildtype HIV-1 protease): 69 nM
- EC50 (HIV-1 (H9IIIB strain)): 580 nM

SMILES: O=C(C[C@H](c1ccc(F)cc1)c1ccc(Br)cc1)Nc1cccc(F)c1CC[C@@H]1CN[C@H](COC(=O)NCC(F)(F)F)CO1 [Example 155, {(3S,6R)-6-[2-(2-{[(3R)-3-(4-bromophenyl)-3-(4-fluorophenyl)propanoyl]amino}-6-fluoro-phenyl)ethyl]morpholin-3-yl}methyl (2,2,2-trifluoroethyl)carbamate]
- IC50 (wildtype HIV-1 protease): 6.1 nM
- EC50 (HIV-1 (H9IIIB strain)): 58 nM

SMILES: N[C@H](C(=O)Nc1cccc(F)c1CC[C@@H]1CN[C@H](COC(=O)NCC(F)(F)F)CO1)[C@H](c1ccccc1)c1ccc2ccccc2c1 [Example 241, (βR)-N-(3-fluoro-2-{2-[(2R,5S)-5-({[(2,2,2-trifluoroethyl)carbamoyl]oxy}methyl)morpholin-2-yl]ethyl}phenyl)-β-naphthalen-2-yl-L-phenylalaninamide]
- IC50 (wildtype HIV-1 protease): 32 nM
- EC50 (HIV-1 (H9IIIB strain)): 360 nM

SMILES: N[C@H](C(=O)Nc1cncc(F)c1CC[C@@H]1CN[C@H](COC(=O)NCC(F)(F)F)CO1)[C@H](c1ccccc1)c1ccc(OC(F)(F)F)cc1 [Example 238, (βR)-N-(5-fluoro-4-{2-[(2R,5S)-5-({[(2,2,2-trifluoroethyl)carbamoyl]oxy}methyl)morpholin-2-yl]ethyl}pyridin-3-yl)-β-phenyl-O-(trifluoromethyl)-L-tyrosinamide]
- IC50 (wildtype HIV-1 protease): 69 nM
- EC50 (HIV-1 (H9IIIB strain)): 470 nM

SMILES: COC(=O)N[C@H](C(=O)Nc1cccc(F)c1CC[C@@H]1CN[C@H](COC(=O)NCC(F)(F)F)CO1)[C@H](c1ccccc1)c1ccc(F)c(F)c1 [Example 294, (βR)-β-(3,4-difluorophenyl)-N-(3-fluoro-2-{2-[(2R,5S)-5-({[(2,2,2-trifluoroethyl)carbamoyl]oxy}methyl)morpholin-2-yl]ethyl}phenyl)-Nα-(methoxycarbonyl)-L-phenylalaninamide]
- IC50 (wildtype HIV-1 protease): 3.8 nM
- EC50 (HIV-1 (H9IIIB strain)): 14 nM

SMILES: N[C@H](C(=O)Nc1cncc(F)c1CC[C@@H]1CNC(COC(=O)NCC(F)(F)F)CO1)[C@@H](c1ccc(F)cc1)c1cccc(Cl)c1 (stereo in doubt) [Example 93, (2S,3S)-2-Amino-3-(3-chlorophenyl)-3-(4-fluorophenyl)-N-(5-fluoro-4-(2-((2R,5R)-5-(2,2,2-trifluoroethylaminocarbonyloxymethyl)morpholine-2-yl)ethyl)pyridin-3-yl)propanamide]
- IC50 (wildtype HIV-1 protease): 1.7 nM
- EC50 (HIV-1 (H9IIIB strain)): 52 nM

SMILES: NC(=O)OC[C@@H]1CO[C@H](CCc2c(F)cccc2NC(=O)C[C@@H](c2ccc(F)cc2)c2ccc(F)cc2F)CN1 [Example 156, {(3S,6R)-6-[2-(2-{[(3S)-3-(2,4-difluorophenyl)-3-(4-fluorophenyl)propanoyl]amino}-6-fluoro-phenyl)ethyl]morpholin-3-yl}methyl carbamate]
- IC50 (wildtype HIV-1 protease): 10 nM
- EC50 (HIV-1 (H9IIIB strain)): 26 nM

SMILES: COC(=O)N[C@H](C(=O)Nc1cccc(F)c1CC[C@@H]1CN[C@H](COC(=O)NCC(C)(C)O)CO1)C(c1ccc(F)cc1)c1ccc(F)cc1 [Example 121, 4-Fluoro-N-(3-fluoro-2-{2-[(2R,5S)-5-({[(2-hydroxy-2-methylpropyl)carbamoyl]oxy}methyl)morpholin-2-yl]ethyl}phenyl)-β-(4-fluorophenyl)-Nα-(methoxycarbonyl)-L-phenylalaninamide]
- IC50 (wildtype HIV-1 protease): 2.5 nM
- EC50 (HIV-1 (H9IIIB strain)): 10 nM

SMILES: COC(=O)N[C@H](C(=O)Nc1cncc(F)c1CC[C@@H]1CN[C@H](COC(=O)NCC(F)(F)F)CO1)[C@@H](c1ccc(F)cc1)c1ccc(F)c(F)c1 [Example 288]
- IC50 (wildtype HIV-1 protease): 3.2 nM
- EC50 (HIV-1 (H9IIIB strain)): 16 nM

SMILES: N[C@H](C(=O)Nc1cncc(F)c1CC[C@@H]1CN[C@H](COC(=O)NC2CCCOC2)CO1)C(c1ccc(F)cc1)c1ccc(F)cc1 (stereo partly drawn) [Example 253, 4-fluoro-β-(4-fluorophenyl)-N-(5-fluoro-4-{2-[(2R,5S)-5-{[(tetrahydro-2H-pyran-3-ylcarbamoyl)oxy]methyl}morpholin-2-yl]ethyl}pyridin-3-yl)-L-phenylalaninamide]
- IC50 (wildtype HIV-1 protease): 7.7 nM
- EC50 (HIV-1 (H9IIIB strain)): 24 nM

SMILES: COC(=O)N[C@H](C(=O)Nc1cccc(F)c1CC[C@@H]1CN[C@H](COC(=O)NCC(F)(F)F)CO1)[C@H](c1ccc(F)cc1)c1ccc(OC)cc1 [Example 299, (βS)-β-(4-fluorophenyl)-N-(3-fluoro-2-{2-[(2R, 5S)-5-({[(2,2,2-trifluoroethyl)carbamoyl]oxy}methyl)morpholin-2-yl]ethyl}phenyl)-Nα-(methoxy-carbonyl)-O-methyl-L-tyrosinamide]
- IC50 (wildtype HIV-1 protease): 15 nM
- EC50 (HIV-1 (H9IIIB strain)): 32 nM

SMILES: N[C@H](C(=O)Nc1cncc(F)c1CC[C@@H]1CN[C@H](CO)CO1)[C@@H](c1ccccc1)c1ccnc2ccccc12 [Example 249, (βS)-N-(5-fluoro-4-{2-[(2R,5R)-5-(hydroxymethyl)morpholin-2-yl]ethyl}pyridin-3-yl)-β-quinolin-4-yl-L-phenylalaninamide]
- IC50 (wildtype HIV-1 protease): 9.4 nM
- EC50 (HIV-1 (H9IIIB strain)): 3000 nM

SMILES: NC(=O)OC[C@@H]1CO[C@H](CCc2c(F)cccc2NC(=O)[C@@H](N)C(c2ccc(F)cc2)c2ccc(F)cc2)CN1 [Example 116, N-[2-(2-{(2R,5S)-5-[(Carbamoyloxy)methyl]morpholin-2-yl}ethyl)-3-fluorophenyl]-4-fluoro-β-(4-fluorophenyl)-L-phenylalaninamide]
- IC50 (wildtype HIV-1 protease): 17 nM
- EC50 (HIV-1 (H9IIIB strain)): 47 nM

SMILES: N[C@H](C(=O)Nc1cccc(F)c1CC[C@@H]1CN[C@H](COC(=O)NCC(F)(F)F)CO1)[C@H](c1ccccc1)c1cccc(Cl)c1 [Example 244, (βR)-3-chloro-N-(3-fluoro-2-{2-[(2R,5S)-5-({[(2,2,2-trifluoroethyl)carbamoyl]oxy}methyl)morpholin-2-yl]ethyl}phenyl)-β-phenyl-L-phenylalaninamide]
- IC50 (wildtype HIV-1 protease): 22 nM
- EC50 (HIV-1 (H9IIIB strain)): 120 nM

SMILES: CCOCCNC(=O)OC[C@@H]1CO[C@H](CCc2c(F)cncc2NC(=O)[C@@H](N)C(c2ccc(F)cc2)c2ccc(F)cc2)CN1 [Example 248, N-(4-{2-[(2R,5S)-5-({[(2-ethoxyethyl)carbamoyl]oxy}methyl)morpholin-2-yl]ethyl}-5-fluoropyridin-3-yl)-4-fluoro-β-(4-fluorophenyl)-L-phenylalaninamide]
- IC50 (wildtype HIV-1 protease): 9.8 nM
- EC50 (HIV-1 (H9IIIB strain)): 55 nM

SMILES: NC(=O)OC[C@@H]1CO[C@H](COc2c(F)cc(F)cc2NC(=O)[C@@H](N)C(c2ccc(F)cc2)c2ccc(F)cc2)CN1 [Example 258, N-[2-({(2S,5S)-5-[(carbamoyloxy)methyl]morpholin-2-yl}methoxy)-3,5-difluorophenyl]-4-fluoro-β-(4-fluorophenyl)-L-phenylalaninamide]
- IC50 (wildtype HIV-1 protease): 5 nM
- EC50 (HIV-1 (H9IIIB strain)): 260 nM

SMILES: COC(=O)N[C@H](C(=O)Nc1cccc(F)c1CC[C@@H]1CN[C@H](COC(=O)NCC(F)(F)F)CO1)C(c1ccc(F)cc1)c1ccc(F)cc1 [Example 285]
- IC50 (wildtype HIV-1 protease): 13 nM
- EC50 (HIV-1 (H9IIIB strain)): 21 nM

SMILES: COC(=O)N[C@H](C(=O)Nc1cncc(F)c1CC[C@@H]1CN[C@H](COC(=O)NCC(F)(F)F)CO1)[C@H](c1ccc(F)cc1)c1ccc(OC(F)(F)F)cc1 [Example 283]
- IC50 (wildtype HIV-1 protease): 14 nM
- EC50 (HIV-1 (H9IIIB strain)): 69 nM

SMILES: N[C@H](C(=O)Nc1cncc(F)c1CC[C@@H]1CN[C@H](COC(=O)NCC(F)(F)F)CO1)[C@@H](c1ccc(F)cc1)c1ccc(F)c(F)c1 [Example 265, (βS)-3,4-difluoro-β-(4-fluorophenyl)-N-(5-fluoro-4-{2-[(2R,5S)-5-({[(2,2,2-trifluoroethyl)carbamoyl]oxy}methyl)morpholin-2-yl]ethyl}pyridin-3-yl)-L-phenylalaninamide]
- IC50 (wildtype HIV-1 protease): 3.1 nM
- EC50 (HIV-1 (H9IIIB strain)): 36 nM

SMILES: COC(=O)N[C@H](C(=O)Nc1cccc(F)c1CC[C@@H]1CN[C@H](COC(=O)NCC(F)(F)F)CO1)[C@@H](c1ccc(F)cc1)C1CCOCC1 [Example 130, (βR)-4-Fluoro-N-(3-fluoro-2-{2-[(2R,5S)-5-({[(2,2,2-trifluoroethyl)carbamoyl]oxy}methyl)morpholin-2-yl]ethyl}phenyl)-Nα-(methoxycarbonyl)-β-(tetrahydro-2H-pyran-4-yl)-L-phenylalaninamide]
- IC50 (wildtype HIV-1 protease): 68 nM
- EC50 (HIV-1 (H9IIIB strain)): 26 nM

SMILES: N[C@H](C(=O)Nc1cccc(F)c1CC[C@@H]1CN[C@H](COC(=O)NCC(F)(F)F)CO1)[C@H](c1ccccc1)c1ccc(F)c(F)c1 [Example 269, (βR)-β-(3,4-difluorophenyl)-N-(3-fluoro-2-{2-[(2R,5S)-5-({[(2,2,2-trifluoroethyl)carbamoyl]oxy}methyl)morpholin-2-yl]ethyl}phenyl)-L-phenylalaninamide]
- IC50 (wildtype HIV-1 protease): 2.7 nM
- EC50 (HIV-1 (H9IIIB strain)): 25 nM
